Reference: patent US11246817B2, “Antimicrobial composition” (Conopco, Inc., priority 2016, dated 2022)
Like-named read-outs stand apart in the source and are kept apart here.

System: M. furfur (CBS 1878)
Assay: ΣFIC assay against Malassezia furfur (in-vitro susceptibility testing, alamar blue)
Assay type: cell-based
Settings: for MIC: Malassezia furfur; for interaction with zinc pyrithione (synergy) in words: binary combination with zinc pyrithione, judged from ΣFIC; for ΣFIC: in combination with zinc pyrithione 0 to 12.5 ppm, climbazole 0 to 500 ppm, selenium sulfide 0 to 100 ppm
Procedure: A brief description of the method is given below.
Methods: ΣFIC assay against Malassezia furfur
They are then incubated at 32° C. for 48 hrs with shaking. Then, 1 ml of the first broth culture is transferred into 9 ml of fresh PB and incubated at 32° C. for 48 hrs with shaking. The final culture should contain 2 to 6×10^6 cells/ml. This is achieved by diluting using PB to 5*10^5 cell/ml.
The alcoholic compound was serially diluted (2-fold) to prepare in a range of 10-10,000 ppm in growth medium.
Binary combinations of ZPTO and the testing compound were prepared in 96-well plate by mixing 20 μl of zinc pyrithione solution with 20 μl of testing compound. The solution in each well were further mixed with 160 μl of PB and 20 μl of M. furfur. The final cell density in the testing plate is around 5*10^4 cell/ml, and the final concentration of actives in each well of the 96-wel plate were shown below.
The plate was incubated at 32° C. for one day. Then 20 μl of alamar blue (0.01%) was added into each well with a further incubation for one day to observe the color change. Red color indicates microbial growth and the non-changing blue color indicates no growth.
The MIC is defined as the absolute lowest concentration of active that provides complete microbial growth inhibition as indicated by the blue color of alamar blue under the tested condition.
The differing behaviours of inhibitory antimicrobials in isolation and mixtures have been widely explored using the concept of the Fractional Concentration (FC) and Fractional
Inhibitory Concentration (FIC). The parameter can be defined as follows: […]
The interactions between antimicrobials can be additive, synergistic or antagonistic depending on whether the efficacy of the combination is equivalent to, greater than or less than that obtained for the same total concentration of the individual components when tested alone.
These relationships can be expressed mathematically by summing the fractional MIC values for all the components present in the mixture to give the “fractional inhibition index”. There is no consistent approach in the academic or patent literature in defining precise limiting ΣFIC values that differentiate synergy from additivity or antagonism. In this study, we have adopted a liberal approach defining any binary mixture with ΣFIC <0.9 as showing evidence of synergistic behavior.
ΣFIC=FIC (component 1)+FIC (component 2)
ΣFIC=1 corresponds to additive bactericidal activity
ΣFIC>1 corresponds to antagonistic bactericidal activity
ΣFIC<0.9 corresponds to synergistic bactericidal activity
Climbazole was varied over a concentration of 0 to 500 ppm and selenium sulfide over a concentration of 0 to 100 ppm.

[1] = CBS1878, read-out: Minimum Inhibition Concentration (MIC)

Row | MIC (CBS1878, active alone, lowest concentration giving complete growth inhibition (alamar blue stays blue), 32° C., Pityrosporum Broth, read-out: Minimum Inhibition Concentration (MIC)) | Structure (SMILES) | interaction with zinc pyrithione (synergy) in words | ΣFIC | MIC [1] | Minimum Inhibition Concentration (MIC) (active alone, lowest concentration giving complete growth inhibition (alamar blue stays blue), 32° C., Pityrosporum Broth)
1 | 3.9 µg/mL | CC(C)(C)C(=O)C(Oc1ccc(Cl)cc1)n1ccnc1 (stereo not drawn) [climbazole] | not synergistic | 2 |  | 
2 |  | C=CCc1ccc(O)c(-c2ccc(O)c(CC=C)c2)c1 [honokiol] |  |  | 1000 µg/mL | 
3 |  | C=CCc1ccc(O)c(-c2cc(CC=C)ccc2O)c1 [magnalol] |  |  | 500 µg/mL | 
4 |  | COc1ccc(C(C)=O)c(O)c1 [paeonol] |  |  | 500 µg/mL | 
5 |  | S=[Se]=S [selenium sulfide] | not synergistic | 2 |  | 50 ppm
